Measured values taken from patent US20140205569A1, “METHODS AND COMPOSITIONS FOR PREVENTING AND TREATING OSTEOARTHRITIS” (priority 2010, published 2014).

Experiments:
[1] = test system: NF-kB; assay: NF-kB activation measured as SEAP release in HT-29 clone 34 cells with or without rhTNF-alpha; type: cell-based; details: general statement of the discovery
Experimental: HT-29 clone 34 cells were seeded at 2.0×10^5 cells/well in DMEM with 5% FCS and 1% PS. Cells were incubated for 24 hours at 37° C. at 5% CO2 with or without rhTNF-alpha with dihomo-gamma-linolenic acid (0.1, 0.3, 0.5, 0.7 or 1 mg/ml) in ethanol as a vehicle. NF-kB activity was measured as SEAP release using a Phospha-Light™ System (Applied Biosystems, Bedford, Mass.) per manufacturer's directions.

[2] = test system: Prostaglandin E2 (PGE2); assay: PGE2 levels in chondrocyte media by enzyme immunoassay, per cell; type: cell-based, canine; details: for PGE2 levels from chondrocyte media, Avg / PGE2 levels from chondrocyte media: fatty acid 50 μM; for PGE2 levels from chondrocyte media, Avg: average of four chondrocyte batches
Experimental: Canine cartilage was digested in a 37° C. shaking water bath using the following enzymes: trypsin (0.25%) for 25 minutes, hyaluronidase (150U/ml) for 1 hour, and collagenase (0.78%) overnight. Digested cartilage was filtered to obtain chondrocytes. Chondrocytes were expanded in monolayer culture with complete media. Composition of the complete media is Dulbecco's Modified Eagle Medium (DMEM)/F12 supplemented with 10% FBS, 1% P/S (100 U/mL penicillin and 100 μg/mL streptomycin) and 50 μg/ml ascorbic acid. Reaching subconfluence, chondrocytes were detached with 0.05% trypsin and cryopreserved. After cryopreservation, canine chondrocytes were expanded in a monolayer and, after reaching subconfluence, cells were trypsinized and subsequently immobilized in alginate beads. Cells suspended in complete media +3% alginate were dropped from a 18-gauge syringe into calcium chloride (120 mM) to form “beads.” Chondrocyte beads were cultured in complete media and media was changed every 2 or 3 days. At the end of the treatment, the chondrocyte beads were dissolved in sodium citrate (55 mM in 0.15 M NaCl). Suspensions were centrifuged at 2620 rpm for 5 minutes. Cells were washed with phosphate buffer and centrifuged again at 2620 rpm for 5 minutes. One mL RNAqueous™ lysis binding solution (Ambion, Austin, Tex.) was added to the isolated canine chondrocyte pellet, mixed thoroughly and stored at −80° C. until RNA isolation could be performed. Chondrocytes were enriched with a fatty acid at 50 μM just after they were enclosed in beads. FBS and ethanol were used as a vehicle. Once the enriched media were prepared, ethanol represented less than 0.1%. Cells were enriched with either arachidonic acid (AA) and dihomo-γ-linolenic acid for 3 weeks total in complete media. The 3rd week the enriched media also contained 10% stimulated monocyte neutrophil conditioned media (SMNCM). Chondrocyte beads were dissolved at the end of the experiment. Cell media was aliquoted in micro-centrifuge tubes and stored at −80° C. until analysis. Cells were enriched with either arachidonic acid (AA) and dihomo-γ-linolenic acid. Prostaglandin E2 (PGE2) levels were determined using Amersham Prostaglandin Prostaglandin E2 Biotrak Enzyme Immunoassay (EIA, GE Healthcare). Before performing the assay, media samples were thawed then diluted 50 to 250 times in assay buffer. Standards and samples were run in duplicate. The cell suspensions obtained after dissolving the alginate beads were centrifuged. After removing the supernatant, each cell pellet was resuspended in 1 ml of phosphate buffered saline. From each sample, 10 μL was added to the same volume of trypan blue stain before counting with a hemocytometer.

[3] = test system: canine chondrocytes; assay: Quantitative PCR expression of osteoarthritis-related genes in fatty-acid-enriched canine chondrocytes in alginate beads, stimulated with SMNCM; type: cell-based; details: fatty acid 50 μM, 3 weeks, 3rd week with 10% SMNCM; normalized to cyclophilin A; N=4
Experimental: Canine cartilage was digested in a 37° C. shaking water bath using the following enzymes: trypsin (0.25%) for 25 minutes, hyaluronidase (150U/ml) for 1 hour, and collagenase (0.78%) overnight. Digested cartilage was filtered to obtain chondrocytes. Chondrocytes were expanded in monolayer culture with complete media. Composition of the complete media is Dulbecco's Modified Eagle Medium (DMEM)/F12 supplemented with 10% FBS, 1% P/S (100 U/mL penicillin and 100 μg/mL streptomycin) and 50 μg/ml ascorbic acid. Reaching subconfluence, chondrocytes were detached with 0.05% trypsin and cryopreserved. After cryopreservation, canine chondrocytes were expanded in a monolayer and, after reaching subconfluence, cells were trypsinized and subsequently immobilized in alginate beads. Cells suspended in complete media +3% alginate were dropped from a 18-gauge syringe into calcium chloride (120 mM) to form “beads.” Chondrocyte beads were cultured in complete media and media was changed every 2 or 3 days. At the end of the treatment, the chondrocyte beads were dissolved in sodium citrate (55 mM in 0.15 M NaCl). Suspensions were centrifuged at 2620 rpm for 5 minutes. Cells were washed with phosphate buffer and centrifuged again at 2620 rpm for 5 minutes. One mL RNAqueous™ lysis binding solution (Ambion, Austin, Tex.) was added to the isolated canine chondrocyte pellet, mixed thoroughly and stored at −80° C. until RNA isolation could be performed.
Samples were vortexed and homogenized using a Quiashredder column (Qiagen, Valencia, Calif.) according to manufacturer's directions. The homogenized lysate was collected and 1 equal volume of 64% ethanol was added to it. This mixture was then applied to an RNAqueous™ filter cartridge, 700 uL at a time, and centrifuged for 1 minute at 10,000 rpm. The cartridge was washed using 700 uL wash solution #1 and 500 uL wash solution #2/3 with centrifugation at 10,000 rpm for 1 minute for each wash. The filter cartridge was dried by centrifugation (10,000 rpm) for 1 minute. RNA was eluted 3 times by centrifugation (as above) using 30 uL aliquots of 95-100° C. elution solution. The resulting RNA was DNAse-treated and quantitated in a Beckman DU 640B spectrophotometer (Beckman Coulter, Inc., Brea, Calif.) at 260 nm. Additionally, quantity and quality were assessed using a bioanalyzer (Agilent, Santa Clara, Calif.) according to manufacturer's directions.
Stimulated monocyte neutrophil conditioned media (SMNCM) was made by isolating monocytes and neutrophils from canine whole blood using NycoPrep™ according to the manufacturer's directions. Monocytes and neutrophils were stimulated with lipopolysaccharide (20 ng/mL) for 72 hours. The resulting supernatant was used as SMNCM in cell culture experimentation (SMNCM made up 10% of media used during experimentation and is kept in frozen aliquots).
Chondrocytes were enriched with a fatty acid at 50 μM just after they were enclosed in beads. FBS and ethanol were used as a vehicle. Once the enriched media were prepared, ethanol represented less than 0.1%. Cells were enriched with either arachidonic acid (AA) and dihomo-γ-linolenic acid for 3 weeks total in complete media. The 3rd week the enriched media also contained 10% stimulated monocyte neutrophil conditioned media (SMNCM). Chondrocyte beads were dissolved at the end of the experiment.
All samples were run singularly against each primer/probe set to determine what standard curve should be used. Standard curves were generated using serial dilutions of liver RNA or RNA from experimental samples. […] Values were normalized to cyclophilin A levels as determined by quantitative PCR. Inductions were calculated from each of the lowest sample's normalized value. N=4 for all treatments.
Values represent relative average induction values. […]

Compound	PGE2 levels from chondrocyte media, Avg [2] [fg/ml/cell]	PGE2 levels from chondrocyte media ([2]; chondrocyte batch 1084) [fg/ml/cell]	PGE2 levels from chondrocyte media ([2]; chondrocyte batch 31010) [fg/ml/cell]	PGE2 levels from chondrocyte media ([2]; chondrocyte batch 31510) [fg/ml/cell]	PGE2 levels from chondrocyte media ([2]; chondrocyte batch 41210) [fg/ml/cell]	Quantitative PCR expression value 2252B (relative average induction) [3]	Quantitative PCR expression value ADAMTS-4 (relative average induction) [3]	Quantitative PCR expression value ADAMTS-5 (relative average induction) [3]	Quantitative PCR expression value CYTL-1 (relative average induction) [3]	Quantitative PCR expression value GRIA-4 (relative average induction) [3]	Quantitative PCR expression value IGF-2 (relative average induction) [3]	Quantitative PCR expression value IL-1 (relative average induction) [3]	Quantitative PCR expression value IL-6 (relative average induction) [3]	Quantitative PCR expression value IL-8 (relative average induction) [3]	Quantitative PCR expression value MMP-2 (relative average induction) [3]	Quantitative PCR expression value MMP-9 (relative average induction) [3]	Quantitative PCR expression value MMP-13 (relative average induction) [3]	Quantitative PCR expression value PC-2A (relative average induction) [3]	Quantitative PCR expression value SOX-9 (relative average induction) [3]	Quantitative PCR expression value TIMP-1 (relative average induction) [3]	other results
CCCCC/C=C\C/C=C\C/C=C\CCCCCCC(=O)O [DGLA, dihomo-γ-linolenic acid]	598	800	331	182	1080	4.7	1.6	2.8	18.0	4.2	15.9	2.4	3.9	3.1	1.6	22.9	2.1	5.2	1.9	3.7	Effect on NF-kB activation (in words) [1]: inhibit NF-kB activation; PGE2 % Decrease ([2]; 50 μM DGLA versus 50 μM AA, chondrocyte batch 1084): 16%; PGE2 % Decrease ([2]; 50 μM DGLA versus 50 μM AA, chondrocyte batch 31010): 30%; PGE2 % Decrease ([2]; 50 μM DGLA versus 50 μM AA, chondrocyte batch 31510): 34%; PGE2 % Decrease ([2]; 50 μM DGLA versus 50 μM AA, chondrocyte batch 41210): 73%; PGE2 % Decrease, Avg ([2]; 50 μM DGLA versus 50 μM AA, from the batch averages): 58%; Effect on inflammatory mediators (in words) ([2]; general statement of the discovery): reduce inflammatory mediators; Quantitative PCR expression value TIMP-2 (relative average induction) [3]: 1.6; Quantitative PCR expression value TNF-alpha (relative average induction) [3]: 18.8
CCCCC/C=C\C/C=C\C/C=C\C/C=C\CCCC(=O)O [AA, arachidonic acid, reference compound]	1414	957	473	274	3950	4.3	1.4	3.0	18.1	5.0	14.7	4.1	4.8	3.0	1.8	9.5	2.7	4.5	1.9	3.5	Quantitative PCR expression value TIMP-2 (relative average induction) [3]: 1.6; Quantitative PCR expression value TNF-alpha (relative average induction) [3]: 26.4
